Here are results for eight molecules from PMC10566475, “A cell-active cyclic peptide targeting the Nrf2/Keap1 protein–protein interaction” (Chemical Science, 2023).

As a reminder, the IC50 is the concentration that gives 50% inhibition. Usually Kd stands for a measure of binding affinity in units of concentration. A lower Kd goes with a tighter complex. A word on the koff: it is the rate constant with which the complex falls apart. By kon is commonly meant the second-order rate constant of association. Lower therefore signals slow association.

*1 amine or outer side, *2 acyl side, *3 side chain or, on linkers, in order; H or OH if unused. Where a SMILES comes first, the peptide text is derived from it. Bridges are numbered along the chain shown (N, C = ends). Roman numbers before positions name the chains, in order. [ ]: non-standard residue; d: D form. X3 = CCCCCCCCCCCCCCCCCC(=O)NCCCC[C@H](NC(=O)COCCOCCNC(=O)COCCOCCn1cc(COCCOCCNc2nc(CC[*:1])cc(CC[*:2])n2)nn1)C(=O)NCCOCCOCC(=O)NCCOCCOCC(N)=O; X2 = O=C(CCCCn1cc(COCCOCCNc2nc(CC[*:1])cc(CC[*:2])n2)nn1)[*:3]; CH2COCH2 = O=C(C[*:1])C[*:2]; CH2 = C([*:1])[*:2]

The subject of data set [1] is NQO1 gene expression in BEAS-2B cells (Homo sapiens). Nature of the data set: BEAS-2B NQO1 assay (qPCR of NQO1 mRNA). The format is cell-based. The following applies: 24 h, concentrations of up to 10 μM. An excerpt: The effect of peptides on Nrf2-dependent gene expression was investigated in BEAS-2B cells, where we determined the upregulation of the mRNA of NAD(P)H quinone dehydrogenase (NQO1) by qPCR. The expression of NQO1 is Nrf2-dependent and it is one of the two major quinone reductases, which play a crucial role in protecting cells from oxidative stress.[40] ^§§ In the context of this study we chose BEAS-2B cells as a representative model for epithelial cells. The presence of serum has been reported to affect BEAS-2B cell phenotype. Specifically, exposure of BEAS-2B to FBS has been associated with squamous differentiation, alteration in cytokine secretion and response to toxicants.[42–44] […] In order to improve the cellular uptake, we took of advantage of the 2C-PS moiety, which not only allows the easy synthesis of a variety of macrocycles of different ring sizes, but also permits the facile introduction of a diverse set of moieties, which could enhance cell permeability. We pursued a diverse set of strategies to make the Keap1 peptide more cell permeable, namely: masking of the acidic amino acids with methyl esters, introduction of polyarginine peptides, GWWG-polyarginine peptides or a long-chain fatty acid tag onto the staple, as well as peptide shortening and a combination of these. The rationale behind these strategies is explained herein, and details of their synthesis can be found in the ESI. ^†
Cellular Biology Experimental
(Thermo Fisher Scientific, USA).
calculated using QunatStudio 7 software.
(Quantitative PCR measures a nucleic acid by following its amplification.)

Data set [2] concerns the target T1, interaction between the human Keap1 Kelch domain and an Nrf2-ETGE peptide (Homo sapiens, UniProt Q14145).
T1 construct: 1nM purified human Keap1 Kelch domain (A321-T609) fused with N-terminal 6x His-tag; made in house
Nature of the data set: Keap1-Nrf2 TR-FRET (HTRF) assay. The format is binding. To be noted: Table 1; geometric mean ± sd of at least 3 independent repeats unless stated; read-out: TR-FRET IC50. An excerpt: (§1) We based the design of our Nrf2-like cyclic peptides around the amino acid sequence of the ETGE motif (namely 12-mer ^73[…]^84L) and SAR studies reported in the literature.[9,10,12,14] The […] motif is known to adopt a beta-turn conformation upon binding to Keap1. Residues Q73-Q75 and L85 stabilise the bound conformation, L76-D77 and E79-G81 bind deep into the pocket with E79 and E82 forming electrostatic interactions with Keap1 and D77 and T80 stabilising the beta-turn via H-bonds with E78 not contributing to the binding. […] The ability of the cyclic peptides to bind to the Kelch domain of Keap1 was evaluated using surface plasma resonance (SPR), where the Kelch domain is immobilised onto a SPR sensor chip. Additionally, we assessed the ability of the peptides to inhibit the PPI between Nrf2 and the Kelch domain of Keap1 using a time-resolved FRET (TR-FRET) assay. Here, the IC50 for inhibition of the interaction between the human Keap1 Kelch domain and an Nrf2-ETGE peptide is measured.
(§2) Surface Plasmon Resonance (SPR)
(§3) Peptide affinities to the Kelch domain of Keap1 is determined in a direct binding assay using 8K surface plasmon resonance (SPR) biosensor (Cytiva) at 20°C. Immobilization of Keap1 Kelch domain on a CM5 sensor chip (Cytiva) is performed using standard amine coupling procedure. The surface is washed with 10mM NaOH, 1M NaCl before activated with EDC/NHS (Cytiva), followed by immobilization of human Keap1 Kelch domain (A321-T609) fused with N-terminal 6x His-tag7 (in 10 mM MES, pH=6.4).
(§4) Finally, the surface is deactivated by Ethanolamine. Immobilization levels are typically 5000-6000 RU.
(§5) The reference spot is treated as described, omitting the injection of Keap1. Compound concentration series are injected over the immobilized protein in increasing concentrations using single cycle kinetics (SCK) in running buffer (10 mM HEPES, 150 mM NaCl, 0.05% Tween20, 1 mM TCEP, pH 7.4). A 1:1 Langmuir interaction model is fitted to the experimental traces, enabling determination of kon, koff and […]
(§6) In the time-resolved Förster resonance energy transfer (TR-FRET) assay8 the IC50 of inhibitors which […]
(§7) are determined. The TR-FRET is measured between a Tb-labelled mAb (Anti—6-His, Tb cryptate Gold, CisBio 61H12TLB) that binds to Keap 1 Kelch domain and d2-labelled SA-biotin-peptide.
(§8) The assay was performed in 384-well white low-volume, medium binding plates (Greiner Bio One, Austria) in 20 mM HEPES pH 7.5, 150 mM NaCl, 2 mM GSH (Sigma-Aldrich, USA),1mM EDTA (Sigma-Aldrich, USA), and 0.01% Pluronic F127 (MilliporeSigma, USA), with a final reaction volume of 10 µL.
(§9) To determine the ability of synthesized peptide to inhibit PPI between the Keap1 Kelch domain and Nrf2, 1nM purified human Keap1 Kelch domain (A321-T609) fused with N-terminal 6x His-tag, 5 nM biotinylated Nrf2 peptide ([…], Genescript, USA), d2-labeled streptavidin (Revvity, USA), and […] anti-His monoclonal antibody tagged with terbium cryptate (Revvity, USA), were incubated in the presence of varying concentrations of investigated peptides for 3 h at room […]
(§10) 7 Li X, Zhang D, Hannink M, Beamer LJ. Crystallization and initial crystallographic analysis of the Kelch domain from human Keap1. Acta
(§11) 8 S. Lee, D. Ali Abed, L. J. Beamer, L. Hu, Development of a Homogeneous Time-Resolved Fluorescence Resonance Energy Transfer (TR-
Following the incubation, the PHERAstar FSX […] microplate reader was used to measure the acceptor and donor emissions at 665 nm and 620 nm, respectively. The acceptor/donor ratio was used to calculate relative energy transfer. Data was normalized by two-point normalization using neutral and inhibitor controls (neutral control: DMSO, inhibitor control: 0.1nM 2-[[4-[carboxymethyl-(4-methoxyphenyl)sulfonylamino]naphthale n-1-yl]-(4-methoxyphenyl)sulfonylamino]acetic acid; […]
parameter logistic fit and IC50 values were calculated using Genedata screener software (Genedata, […]
On the technique in general: Time-resolved FRET reads energy transfer from a long-lived donor to a nearby acceptor.

Data set [3] has as its target T2, human Keap1 Kelch domain (A321-T609) (Homo sapiens, UniProt Q14145).
T2 construct: human Keap1 Kelch domain (A321-T609) fused with N-terminal 6x His-tag; 6xHis (N); made in house
Nature of the data set: Surface plasmon resonance (SPR) direct binding assay, immobilised Keap1 Kelch domain. To be noted: Table 1; for Kd: geometric mean ± sd of at least 3 independent repeats unless stated, 20°C; for koff / kon: single cycle kinetics, 1:1 Langmuir model.
Text: as §1, §2, §3, §4, §5, §6, §7, §8, §9, §10, §11
For orientation: SPR reads the build-up and loss of mass on a sensor chip optically.

The next data set has as its system BEAS-2B cells. Nature of the data set: CellTiter Glo assay. The following applies: P8-H tested up to 30 μM.

Chain of NQO1 gene expression in BEAS-2B cells (Homo sapiens) (Q14145 whole entry): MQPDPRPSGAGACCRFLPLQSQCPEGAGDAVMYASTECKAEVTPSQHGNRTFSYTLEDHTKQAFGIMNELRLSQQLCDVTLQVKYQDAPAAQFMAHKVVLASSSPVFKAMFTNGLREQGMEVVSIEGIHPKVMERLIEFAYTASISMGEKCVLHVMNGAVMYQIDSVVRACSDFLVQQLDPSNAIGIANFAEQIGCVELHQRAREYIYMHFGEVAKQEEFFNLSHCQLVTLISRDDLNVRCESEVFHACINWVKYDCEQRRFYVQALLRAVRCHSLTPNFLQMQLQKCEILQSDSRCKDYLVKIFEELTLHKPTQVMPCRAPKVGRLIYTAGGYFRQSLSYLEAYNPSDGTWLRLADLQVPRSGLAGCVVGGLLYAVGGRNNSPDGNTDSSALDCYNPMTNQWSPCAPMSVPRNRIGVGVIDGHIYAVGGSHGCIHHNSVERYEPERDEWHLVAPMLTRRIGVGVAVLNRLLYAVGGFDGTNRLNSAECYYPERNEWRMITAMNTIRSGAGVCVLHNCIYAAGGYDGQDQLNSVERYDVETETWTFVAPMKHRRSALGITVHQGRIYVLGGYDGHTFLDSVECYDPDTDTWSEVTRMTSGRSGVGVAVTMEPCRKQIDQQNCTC
T2 sequence (Q14145 321-609): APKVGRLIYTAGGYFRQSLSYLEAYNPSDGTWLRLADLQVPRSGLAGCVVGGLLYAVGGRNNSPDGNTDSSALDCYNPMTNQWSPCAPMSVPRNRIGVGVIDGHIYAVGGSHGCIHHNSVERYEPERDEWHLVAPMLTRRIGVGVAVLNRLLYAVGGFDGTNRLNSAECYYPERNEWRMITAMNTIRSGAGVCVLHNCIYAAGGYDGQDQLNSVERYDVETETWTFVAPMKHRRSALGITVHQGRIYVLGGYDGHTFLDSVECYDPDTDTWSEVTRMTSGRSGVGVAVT
T1 sequence (Q14145 321-609): as above

Regarding `CC(=O)N[C@H]1CSCCc2cc(nc(NCCOCCOCc3cn(CCCCC(=O)NCC(=O)N[C@@H](Cc4c[nH]c5ccccc45)C(=O)N[C@@H](Cc4c[nH]c5ccccc45)C(=O)NCC(=O)N[C@H](CCCNC(=N)N)C(=O)N[C@H](CCCNC(=N)N)C(=O)N[C@H](CCCNC(=N)N)C(N)=O)nn3)n2)CCSC[C@@H](C(=O)N[C@@H](CC(C)C)C(N)=O)NC(=O)[C@H](CCC(=O)O)NC(=O)CNC(=O)[C@H]([C@@H](C)O)NC(=O)[C@H](CCC(=O)O)NC(=O)[C@@H]2CCCN2C(=O)[C@H](CC(=O)O)NC1=O` [Peptide P8-G], in data set [1], the “induction of NQO1 mRNA (Nrf2-dependent gene expression)” value (from here on “induction of NQO1 mRNA”) is given as “did not lead to any activity”.

Consider `CC(=O)N[C@H]1CSCCc2cc(nc(NCCOCCOCc3cn(CCCCC(=O)NCC(=O)N[C@@H](Cc4c[nH]c5ccccc45)C(=O)N[C@@H](Cc4c[nH]c5ccccc45)C(=O)NCC(=O)N[C@H](CCCNC(=N)N)C(=O)N[C@H](CCCNC(=N)N)C(=O)N[C@H](CCCNC(=N)N)C(N)=O)nn3)n2)CCSC[C@@H](C(=O)N[C@@H](CC(C)C)C(N)=O)NC(=O)[C@H](CCC(=O)O)NC(=O)CNC(=O)[C@H]([C@@H](C)O)NC(=O)[C@H](CCC(=O)O)NC(=O)[C@@H]2CCCN2C(=O)[C@H](CC(=O)O)NC(=O)[C@H](CC(C)C)NC(=O)[C@H](CCC(N)=O)NC(=O)[C@H](CC(C)C)NC1=O` [Peptide P3-G] (I: Ac-CLQLDPETGECL-NH2 / II: GWWG[dR][dR][dR]-NH2; linker I:1-I:11-II:N via X2), for which the “induction of NQO1 mRNA” value in data set [1] was “no activity was detected”.

Turning to `CCCCCCCCCCCCCCCCCC(=O)NCCCC[C@H](NC(=O)COCCOCCNC(=O)COCCOCCn1cc(COCCOCCNc2nc3cc(n2)CCSC[C@@H](C(=O)N[C@@H](CC(C)C)C(N)=O)NC(=O)[C@H](CCC(=O)O)NC(=O)CNC(=O)[C@H]([C@@H](C)O)NC(=O)[C@H](CCC(=O)O)NC(=O)[C@@H]2CCCN2C(=O)[C@H](CC(=O)O)NC(=O)[C@H](CC(C)C)NC(=O)[C@H](CCC(N)=O)NC(=O)[C@H](CC(C)C)NC(=O)[C@@H](NC(C)=O)CSCC3)nn1)C(=O)NCCOCCOCC(=O)NCCOCCOCC(N)=O` [Peptide P3-H] (Ac-CLQLDPETGECL-NH2; linker 1-11 via X3), the “induction of NQO1 mRNA” value in data set [1] is on record as “did not induce Nrf2-dependent gene expression”.

Turning to `CC(=O)N[C@H]1CSCC(=O)CSC[C@@H](C(=O)N[C@@H](CC(C)C)C(N)=O)NC(=O)[C@H](CCC(=O)O)NC(=O)CNC(=O)[C@H]([C@@H](C)O)NC(=O)[C@H](CCC(=O)O)NC(=O)[C@@H]2CCCN2C(=O)[C@H](CC(=O)O)NC(=O)[C@H](CC(C)C)NC(=O)[C@H](CCC(N)=O)NC1=O` [Peptide P1-B] (Ac-CQLDPETGECL-NH2; linker 1-10 via CH2COCH2), in data set [2], the IC50 was 4.4 ± 1.4 nM. In data set [3], this molecule gave a Kd of 27 ± 1.3 nM, a koff of 0.0087 s⁻¹ and a kon of 410000 M⁻¹ s⁻¹.

Regarding `CC1(C)CC[C@]2(C(=O)O)CC[C@]3(C)[C@H](C(=O)C=C4[C@@]5(C)C=C(C#N)C(=O)C(C)(C)[C@@H]5CC[C@]43C)[C@@H]2C1` [Bardoxolone, reference compound], the “cytotoxicity in CellTiter Glo assay” value in the data set with BEAS-2B cells is “cytotoxic”.

Regarding Ac-LQLDPETGEFL-NH2 [reference compound], the “induction of NQO1 mRNA” value in data set [1] is given as “did not lead to any induction”. In addition, in data set [2], the IC50 came to 5.3 ± 1.2 nM. Moreover, in data set [3], the equilibrium dissociation constant (Kd) worked out at 52 ± 1.4 nM, the koff is 0.0079 s⁻¹ and the association rate constant (kon) amounted to 170000 M⁻¹ s⁻¹.

As for `CC(=O)N[C@H]1CSCSC[C@@H](C(=O)N[C@@H](CC(C)C)C(N)=O)NC(=O)[C@H](CCC(=O)O)NC(=O)CNC(=O)[C@H]([C@@H](C)O)NC(=O)[C@H](CCC(=O)O)NC(=O)[C@@H]2CCCN2C(=O)[C@H](CC(=O)O)NC(=O)[C@H](CC(C)C)NC(=O)[C@H](CCC(N)=O)NC1=O` [Peptide P1-A] (Ac-CQLDPETGECL-NH2; linker 1-10 via CH2), in data set [2], the concentration for half-maximal inhibition (IC50) was found to be 2.9 ± 1.7 nM. Besides, in data set [3], binding was put at a Kd of 19 ± 1.4 nM, the koff was 0.0073 s⁻¹ and the kon came out at 480000 M⁻¹ s⁻¹.

For the molecule `CCCCCCCCCCCCCCCCCC(=O)NCCCC[C@H](NC(=O)COCCOCCn1cc(COCCOCCNc2nc3cc(n2)CCSC[C@@H](C(=O)N[C@@H](CC(C)C)C(N)=O)NC(=O)[C@H](CCC(=O)O)NC(=O)CNC(=O)[C@H]([C@@H](C)O)NC(=O)[C@H](CCC(=O)O)NC(=O)[C@@H]2CCCN2C(=O)[C@H](CC(=O)O)NC(=O)[C@@H](NC(C)=O)CSCC3)nn1)C(=O)NCCOCCOCC(=O)NCCOCCOCC(N)=O` [Peptide P8-H], the “cytotoxicity in CellTiter Glo assay” value in the data set with BEAS-2B cells is “no cytotoxicity”.
